# From US20250295686A1, “COMBINATION DECITABINE AND MPS1 INHIBITOR THERAPY TO PRIME CANCER IMMUNOGENICITY” (Dana-Farber Cancer Institute, Inc., priority 2021, published 2025)
# “Also recorded” adds a separate entry of the source.
# Assays:
# Type in all cases: cell-based, human
# STING pathway = assay: Screening of DNA-damaging agents: CXCL10 / IFN-β ELISA in conditioned medium of H1944 cells after pulse treatment
# Description: (§1) Due to their particular hypersensitivity, H1944 cells were utilized as a model system in which to conduct an unbiased screen of cytotoxic chemotherapies or targeted DNA-damaging agents for their ability to upregulate endogenous 2′3′-cGAMP production following pulse treatment, including cGAS-deficient H2122 cells as a counter-screen (FIGS. 3A and 3B). […] Additionally, hydroxyurea or nocodazole were included as controls to induce S-phase or M-phase cell cycle arrest. The IC50 was identified for each compound for cell viability in H1944 cells, and this concentration was utilized for the screen (FIG. 4A and Table 1). It was shown that each agent induced cellular cytotoxicity and/or DNA-damage response at this concentration, as measured by the induction of propidium iodide positive cells, cleaved PARP fragments, or histone TH2A.X expression (FIGS. 4B and 4C).
# (§2) Human IFN-β (Thermo Fisher Scientific, Cat. #414101), human CXCL10 (R&D systems, Cat. #DIP100), mouse CXCL10 (R&D systems, Cat. #DY466), and 2′3′-cGAMP (Cayman Chemical, Cat. #501700) ELISAs were performed according to the manufacturer's instructions. Conditioned media from each cell lines was collected after 24 hour culture. Values represent the average of four replicates from at least two independent experiments (biological replicates).
# THP1 cells = assay: STING pathway activation (CXCL10 ELISA, immunoblot) in PMA-differentiated macrophage-like THP1 cells; conditions: 200 nM CFI-402257 screening schedule or 10 μM ADU-S100 24 hours
# Experimental: Based on these observations, MPS1 inhibition might also induce micronuclei more efficiently in proliferating cancer cells as compared with non-genomically altered, non-proliferative cells in the TME such as immune cells and endothelial cells.
# as §2
# Cells were lysed in RIPA buffer containing 1× protease inhibitors (Roche, Cat #11-836-145-001) and phosphatase inhibitors (50 mmol/L NaF and 100 mmol/L Na3VO4). […] Imaging of blots and quantitation of bands was performed using the LICOR Odyssey system, or LAS-3000 (Fujifilm).
# KL NSCLC cell lines = assay: CXCL10 ELISA after exogenous CDN exposure, KL NSCLC cell lines; conditions: 24 hours
# Description: Treatment with 2′3′-cGAMP or ADU-S100 was utilized to examine the sensitivity of KP or KL NSCLC cell lines to exogenous CDN exposure. […] KL cell response to extracellular CDNs was still modest as compared with endothelial cells (HUVEC) or monocytic THP-1 cells, which also have different membrane permeabilities (FIG. 2C) (Cordova et al., 2021; Luteijn et al., 2019; Ritchie et al., 2019).
# as §2
# H1944 cells [1] = assay: Cell viability assay to determine an IC50 (CellTiter-Glo); conditions: Homo sapiens, NCI-H1944, 72 hours with drug
# Description: as §1
# 3000 cells were plated onto 96-well plates, and then cultured for 72 hours in the presence of each DNA-damaging agent at the indicated concentration. Values of CellTiter-Glo Luminescent Cell Viability assay (Promega) […] were normalized to vehicle treated cells. Plates were read on a Tecan Infinite M200 Pro plate reader and analysis was performed using Prism7 (GraphPad Software). All conditions were tested in triplicate.
# H1944 cells [2] = assay: Quantification of micronucleus formation; conditions: 48-hour pulse treatment schedule, 200 nM CFI-402257, 5 nM docetaxel, 200 nM barasertib
# Description: MPS1 is a regulator of the spindle assembly checkpoint (SAC), and MPS1 inhibition in other contexts is known to facilitate massive chromosome missegregation (London and Biggins, 2014). This effect could therefore be related to the formation of micronuclei, known activators of cGAS-STING signaling generated by mitotic slippage and subsequent progression into G1 (Mackenzie et al., 2017). […] Furthermore, induction of CXCL10 mRNA expression in H1944 cells directly correlated with the number of micronuclei induced by these DNA-damaging agents, with CFI-402257 representing the clear outlier (FIG. 5C). Additionally, Lamin B2 over-expression, which is sufficient to inhibit micronuclei disruption (Hatch et al., 2013) and could protect against cGAS recognition, attenuated CXCL10 secretion induced by pulse treatment with MPS1 inhibitor (FIGS. 6A and 6B).
# Cells were plated onto chamber slides (CellTreat, Cat #229168), and treated with DNA-damaging agents for 48 hours. […] Z-stack images were subjected to maximum projection followed by quantitative analysis using CellSens. All samples were imaged and analyzed with the same setting throughout the experiments. The number of micronuclei were counted from three different fields for each sample. […] Slides were imaged with Zeiss LSM 880 confocal microscopy, and colocalization was determined using ImageJ.
smiles,measurement,setting,value
Nc1ncnc2c1ncn2[C@@H]1O[C@@H]2COP(=O)([S-])O[C@@H]3[C@H](O)[C@@H](COP([O-])(=S)O[C@H]2[C@H]1O)O[C@H]3n1cnc2c(N)ncnc21.[Na+].[Na+] (some centres unmarked) [ADU-S100],STING signaling activation in H1944 cells,STING pathway; 200 nM CFI-402257 screening schedule vs 10 μM ADU-S100 24 hours,negligible impact
same,STING pathway activation in macrophage-like THP1 cells,THP1 cells,high sensitivity
same,"CXCL10 secretion, STING^Absent KL cell lines","KL NSCLC cell lines; A549, H23, A427, up to 100 μM",failed to respond
same,"CXCL10 secretion, STING^Low KL cells","KL NSCLC cell lines; H1944, H2122, H647, H1355, 3.125-100 μM",dose-dependent manner
CC(=O)O[C@@]12CO[C@@H]1C[C@H](O)[C@@]1(C)C(=O)[C@H](O)C3=C(C)[C@@H](OC(=O)[C@H](O)[C@@H](NC(=O)OC(C)(C)C)c4ccccc4)C[C@@](O)([C@@H](OC(=O)c4ccccc4)[C@H]21)C3(C)C [docetaxel],IC50,H1944 cells [1],3.97 nM
same,CXCL10 secretion in H1944 cells following 48-hour pulse treatment,"STING pathway; H1944 cells, IC50-based screening concentration, ELISA of conditioned medium",induce significant CXCL10 secretion; also recorded: partially activated CXCL10 production
same,CXCL10 induction at lower concentrations,"STING pathway; H1944 cells, concentrations below the IC50, pulse treatment",not upregulated
same,micronuclei formation,H1944 cells [2],generated micronuclei
